One may read the EC50 as the concentration that produces a half-maximal response. Lower therefore signals a more potent agent.
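Note: CHO cells stably expressing human FSH receptor with CRE-driven firefly luciferase, luminescence read as counts per second after 4 h compound exposure in 1% DMSO.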

The test deals with T1, human FSH receptor (Homo sapiens, UniProt P23945).
T1 sequence (P23945 18-695): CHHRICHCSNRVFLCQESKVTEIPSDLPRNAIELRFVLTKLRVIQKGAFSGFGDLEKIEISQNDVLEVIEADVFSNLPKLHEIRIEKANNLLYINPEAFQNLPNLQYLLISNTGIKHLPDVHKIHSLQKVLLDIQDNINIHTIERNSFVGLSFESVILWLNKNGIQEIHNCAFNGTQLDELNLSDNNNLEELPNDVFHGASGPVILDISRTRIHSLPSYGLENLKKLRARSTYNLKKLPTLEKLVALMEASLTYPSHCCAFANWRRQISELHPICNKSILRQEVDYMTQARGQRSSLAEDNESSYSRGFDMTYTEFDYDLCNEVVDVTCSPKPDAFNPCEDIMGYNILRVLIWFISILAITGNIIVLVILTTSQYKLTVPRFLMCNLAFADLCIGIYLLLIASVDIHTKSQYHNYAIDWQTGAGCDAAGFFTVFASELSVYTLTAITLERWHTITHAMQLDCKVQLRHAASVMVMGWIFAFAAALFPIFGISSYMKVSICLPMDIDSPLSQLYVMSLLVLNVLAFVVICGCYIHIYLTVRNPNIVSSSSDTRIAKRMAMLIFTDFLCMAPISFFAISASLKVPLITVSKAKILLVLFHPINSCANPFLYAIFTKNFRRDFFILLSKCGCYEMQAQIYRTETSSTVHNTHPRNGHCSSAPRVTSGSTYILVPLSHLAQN
Protocol: Agonistic activity of compounds at the human FSH receptor expressed in CHO cells
Agonistic activity of the compounds at the human FSH receptor was determined in Chinese Hamster Ovary (CHO) cells stably transfected with the human FSH receptor and cotransfected with a cAMP responsive element (CRE)/promotor directing the expression of a firefly luciferase reporter gene. […] Cells (7,500 cells/well of a 384 well plate) were incubated in Dulbecco' minimal essential F12 modified medium (Invitrogen), supplemented with 1 µg/ml bovine insulin, 5 µg/ml human apotransferrin, 80 U/ml penicillin G and 80 µg/ml streptomycin with the test compounds (concentration between 0.0316 nM and 10.0 µM) in duplicate in a humidified atmosphere (95%) at 5-7% CO2 and 37°C. The final concentration of DMSO was 1%. After 4 hours of incubation, plates were allowed to adjust to room temperature for 1 hour. Then, Luclite (PerkinElmer) solution was added to the wells and cells were allowed to lyse for at least 1 hour at room temperature. Subsequently, luciferase activity was measured in a luminescence counter. The signal is expressed as counts per second (cps). The EC50 (concentration of the test compound that elicits half-maximal (50 %) luciferase stimulation compared to the compound's maximally attainable effect) and efficacy values (maximal effect of the test compound as percentage of the maximal effect of recombinant human FSH) of the compounds were determined using the software program MathIQ (version 2.0, ID Business Solutions Limited).
In turn, `COc1cc2c(cc1NC(=O)CN1CCN(C)CC1)-c1c(c(C(=O)N(C)C(C)(C)C)nn1-c1cccc(C)c1)CC2` [Example 12ja, N-tert-butyl-7-methoxy-N-methyl-8-(2-(4-methylpiperazin-1-yl)acetamido)-1-m-tolyl-4,5-dihydro-1H-benzo[g]indazole-3-carboxamide] returned an EC50 of 1000 to 10000 nM.

Consider `COc1cc2c(cc1NC(=O)CN1CCOCC1)-c1c(c(C(=O)N(C)C(C)(C)C)nn1-c1cccc(C)c1)CC2` [Example 12jb, N-tert-butyl-7-methoxy-N-methyl-8-(2-morpholinoacetamido)-1-m-tolyl-4,5-dihydro-1H-benzo[g]indazole-3-carboxamide], for which the EC50 was in the range of 1000 to 10000 nM.

As for `COc1cc2c(cc1NC(=O)CN(C)C)-c1c(c(C(=O)N(C)C(C)(C)C)nn1-c1cccc(C)c1)CC2` [Example 12jc, N-tert-butyl-8-(2-(dimethylamino)acetamido)-7-methoxy-N-methyl-1-m-tolyl-4,5-dihydro-1H-benzo[g]indazole-3-carboxamide], the EC50 was in the range of 1000 to 10000 nM.

Turning to `COc1cc2c(cc1NC(=O)CN1CCC1)-c1c(c(C(=O)N(C)C(C)(C)C)nn1-c1cccc(C)c1)CC2` [Example 12jd, 8-(2-(azetidin-1-yl)acetamido)-N-tert-butyl-7-methoxy-N-methyl-1-m-tolyl-4,5-dihydro-1H-benzo[g]indazole-3-carboxamide], the EC50 is 1000 to 10000 nM.

`COc1cc2c(cc1OC(C)C)-c1c(c(C(=O)N(C)C(C)(C)C)nn1-c1ccc(C)cc1)CC2` [Example 13ca, N-tert-butyl-8-isopropoxy-7-methoxy-N-methyl-1-p-tolyl-4,5-dihydro-1H-benzo[g]indazole-3-carboxamide] yielded an EC50 of 1000 to 10000 nM.

With `CCc1ccc(-n2nc(C(=O)N(C)C(C)(C)C)c3c2-c2cc(OC(C)C)c(OC)cc2CC3)cc1` [Example 13cb, N-tert-butyl-1-(4-ethylphenyl)-8-isopropoxy-7-methoxy-N-methyl-4,5-dihydro-1H-benzo[g]lindazole-3-carboxamide], the EC50 lay within 1000 to 10000 nM.

Molecule `COc1ccc(-n2nc(C(=O)N(C)C(C)(C)C)c3c2-c2cc(OC(C)C)c(OC)cc2CC3)cc1` [Example 13cc, N-tert-butyl-8-isopropoxy-7-methoxy-1-(4-methoxyphenyl)-N-methyl-4,5-dihydro-1H-benzo[g]indazole-3-carboxamide] showed an EC50 of 1000 to 10000 nM.

Molecule `COc1cc2c(cc1OC(C)C)-c1c(c(C(=O)N(C)C(C)(C)C)nn1-c1ccc(F)cc1)CC2` [Example 13cd, N-tert-butyl-1-(4-fluorophenyl)-8-isopropoxy-7-methoxy-N-methyl-4,5-dihydro-1H-benzo[g]indazole-3-carboxamide] had an EC50 of 100 to 1000 nM.

In turn, `COc1cc2c(cc1OC(C)C)-c1c(c(C(=O)N(C)C(C)(C)C)nn1-c1ccc(Cl)cc1)CC2` [Example 13ce, N-tert-butyl-1-(4-chlorophenyl)-8-isopropoxy-7-methoxy-N-methyl-4,5-dihydro-1H-benzo[g]indazole-3-carboxamide] had a 50% effective concentration (EC50) of 100 to 1000 nM.

With `COc1cc2c(cc1OC(C)C)-c1c(c(C(=O)N(C)C(C)(C)C)nn1-c1ccc(Br)cc1)CC2` [Example 13cf, N-tert-butyl-1-(4-bromophenyl)-8-isopropoxy-7-methoxy-N-methyl-4,5-dihydro-1H-benzo[g]indazole-3-carboxamide], the EC50 lay in the range of 1000 to 10000 nM.

In turn, `COc1cc2c(cc1OC)-c1c(c(C(=O)N3CCCN(C(C)=O)CC3)nn1-c1ccsc1)CC2` [Example 14e, 1-(4-(7,8-dimethoxy-1-(thiophen-3-yl)-4,5-dihydro-1H-benzo[g]indazole-3-carbonyl)-1,4-diazepan-1-yl)ethanone] came in with an EC50 of 1000 to 10000 nM.

The values are drawn from patent EP2459551B1, “DIHYDROBENZOINDAZOLES” (Merck Sharp & Dohme B.V., priority 2009, dated 2011).
